In patent publication US7470715B2, “Estrogen modulators” (Pfizer Inc., priority 2005, dated 2008):
Where “and” joins values, the source holds several entries; their conditions need not be identical. Equal values may be shown once. Each block holds one molecule with its values, some of them ahead of it.

Experiments:
[1] = biological target: ligand binding domain of the estrogen receptor beta chain (ERβLBD) that contained a point mutation at amino acid residue 418 (pm418) (Homo sapiens, UniProt Q92731); assay: ER agonist cell assay (ERβ), Huh-7 co-transfection, luciferase; format: cell-based; settings: for EC50: Huh-7 cells co-transfected with pG5luc and ERβLBD(pm418), overnight incubation, luciferase; for ERβ % of Max E2 Response: percent of the maximum estradiol fold change, Huh-7, pG5luc and ERβLBD(pm418)
[2] = biological target: T1, ligand binding domain of the estrogen receptor alpha chain (ERαLBD) (Homo sapiens, UniProt P03372); assay: ER agonist cell assay (ERα), Huh-7 co-transfection, luciferase; format: cell-based; settings: for EC50: Huh-7 cells co-transfected with pG5luc and ERαLBD, overnight incubation, luciferase; for ERα % of Max E2 Response: percent of the maximum estradiol fold change, Huh-7, pG5luc and ERαLBD
T1 construct: expressed in transfected cells; host or cells: Huh-7 human hepatoma cells, transient transfection with FuGENE 6
T1 sequence (P03372 311-547 limits assumed): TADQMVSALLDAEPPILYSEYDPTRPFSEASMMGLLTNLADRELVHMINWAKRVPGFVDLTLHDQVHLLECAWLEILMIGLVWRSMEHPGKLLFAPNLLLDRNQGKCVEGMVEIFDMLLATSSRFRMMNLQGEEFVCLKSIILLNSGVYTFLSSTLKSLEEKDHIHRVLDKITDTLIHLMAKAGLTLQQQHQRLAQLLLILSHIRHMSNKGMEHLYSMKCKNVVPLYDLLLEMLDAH

[3] = system: hairless female SKH, 1-hr mice; assay: Animal model for reversal of wrinkles: skin thickness model, topical dosing, skin thickness and hyaluronic acid; format: in vivo, mouse; settings: three days
Source text: Animal Model for Reversal of Wrinkles
Uzuka et al. describes an increase in mouse back skin water content, hyaluronic acid (HA) content, and hyaluronic acid synthetase activity following topical application or subcutaneous injection of estradiol (Biochimica et Biophysica Acta, 627, 199-206, 1980; Biochimica et Biophysica Acta 673, 387-393, 1981). […] Thus, this model may be used to as a preliminary screen to assess the potential for estrogen modulators to alleviate wrinkles in human skin.
The skin thickness model uses hairless female SKH, 1-hr mice. Mice aged to approximately 11 weeks are introduced into the laboratory environment and acclimated for at least 1 week prior to use in the study may be used. Each group typically consisted of 7 animals that may be run in parallel with vehicle and the positive control estradiol. Based on binding and/or cellular assay data, compounds are chosen for screening in this model. Those compounds include the products of Examples, 2, 9, 15, 46, 47, 48, 51, 52, 61, 135, and 137. Prior to topical application to mouse dorsal skin, a sufficient quantity of each compound is dissolved in a solvent generally consisting of ethanol and propylene glycol (70/30% v/v) (vehicle) to achieve the final concentration specified in Table C below. Animals are dosed topically QD or BID, for three days. Each dose consisted of 100 microliters of vehicle or drug applied uniformly to the entire dorsal surface (˜18 cm^2). All animals are sacrificed approximately 18-24 hours after the final dose. Skin thickness (ST) is measured using a caliper. HA is extracted from the skin and quantitated using commercially-available enzyme-linked immunosorbent assays (ELISAs)(HA).
Data are presented as percent of the estradiol response after subtracting out the ST for vehicle-treated mouse skin. The estradiol response is set to 100% and the vehicle resoibse becines 0%.

[4] = 1% topical, BID, vehicle 0%, estradiol 100%

Structure (SMILES): OCC1(c2onc(-c3ccc(O)cc3)c2-c2ccccc2)CC1 [Example 2, 4-[5-(1-Hydroxymethyl-cyclopropyl)-4-phenyl-isoxazol-3-yl]-phenol]
melting point: 210 to 211 °C
HA (hyaluronic acid), percent of the estradiol response ([3]; 1% topical, QD): 15%
ST (skin thickness), percent of the estradiol response ([3]; 1% topical, QD): 19%

Structure (SMILES): Cl.Oc1ccc(-c2noc(C3(CNc4ccc5c(c4)CCC5)CC3)c2-c2ccccc2)cc1 [Example 23, 4-{5-[1-(Indan-5-ylaminomethyl)-cyclopropyl]-4-phenyl-isoxazol-3-yl}-phenol hydrochloride salt]
melting point: 204 to 205 °C
EC50 [1]: 3860 nM
ERβ % of Max E2 Response [1]: 5.5%
EC50 [2]: 559 nM
ERα % of Max E2 Response [2]: 21%

Structure (SMILES): CC(C)(O)C1(c2onc(-c3ccc(O)cc3)c2-c2ccccc2)CC1 [Example 49, 4-{5-[1-(1-Hydroxy-1-methyl-ethyl)-cyclopropyl]-4-phenyl-isoxazol-3-yl}-phenol]
melting point: 212 to 213 °C
EC50 [1]: 23.6 nM
ERβ % of Max E2 Response [1]: 36.7%
EC50 [2]: 159 nM
ERα % of Max E2 Response [2]: 94.6%

The next lines start with results.

melting point: 219 to 221 °C
EC50 [1]: 43.2 nM
ERβ % of Max E2 Response [1]: 99.7%
EC50 [2]: 33.1 nM
ERα % of Max E2 Response [2]: 106%
Structure (SMILES): C[C@@H](O)C1(c2onc(-c3ccc(O)cc3)c2-c2ccccc2)CC1 [Example 46, (R)-(−)-4-{5-[1-(1-Hydroxy-ethyl)-cyclopropyl]-4-phenyl-isoxazol-3-yl}-phenol]
HA (hyaluronic acid), percent of the estradiol response ([3]; 0.015% topical, BID): 11%
ST (skin thickness), percent of the estradiol response ([3]; 0.015% topical, BID): 20%
HA (hyaluronic acid), percent of the estradiol response ([3]; 0.05% topical, BID): 52%
ST (skin thickness), percent of the estradiol response ([3]; 0.05% topical, BID): 47%
HA (hyaluronic acid), percent of the estradiol response ([3]; 0.15% topical, BID): 55%
ST (skin thickness), percent of the estradiol response ([3]; 0.15% topical, BID): 65%
HA (hyaluronic acid), percent of the estradiol response ([3]; 0.5% topical, BID): 39% and 68% and 76%
ST (skin thickness), percent of the estradiol response ([3]; 0.5% topical, BID): 53% and 71% and 73%
HA (hyaluronic acid), percent of the estradiol response ([3]; 1% topical, QD): 48%
ST (skin thickness), percent of the estradiol response ([3]; 1% topical, QD): 36%

melting point: 163 to 164 °C
EC50 [1]: 84.7 nM
ERβ % of Max E2 Response [1]: 71.8%
EC50 [2]: 31.3 nM
ERα % of Max E2 Response [2]: 88.8%
Structure (SMILES): CC[C@@H](O)C1(c2onc(-c3ccc(O)cc3)c2-c2ccccc2)CC1 [Example 48, (R)-(−)-4-{5-[1-(1-Hydroxy-propyl)-cyclopropyl]-4-phenyl-isoxazol-3-yl}-phenol]
HA (hyaluronic acid), percent of the estradiol response ([3]; 0.03% topical, BID): 26%
ST (skin thickness), percent of the estradiol response ([3]; 0.03% topical, BID): 33%
HA (hyaluronic acid), percent of the estradiol response ([3]; 0.03% topical, QD): 18%
ST (skin thickness), percent of the estradiol response ([3]; 0.03% topical, QD): 13%
HA (hyaluronic acid), percent of the estradiol response ([3]; 0.1% topical, BID): 63%
ST (skin thickness), percent of the estradiol response ([3]; 0.1% topical, BID): 58%
HA (hyaluronic acid), percent of the estradiol response ([3]; 0.1% topical, QD): 32%
ST (skin thickness), percent of the estradiol response ([3]; 0.1% topical, QD): 29%
HA (hyaluronic acid), percent of the estradiol response ([3]; 0.3% topical, BID): 96%
ST (skin thickness), percent of the estradiol response ([3]; 0.3% topical, BID): 80%
HA (hyaluronic acid), percent of the estradiol response ([3]; 0.3% topical, QD): 41%
ST (skin thickness), percent of the estradiol response ([3]; 0.3% topical, QD): 57%
HA (hyaluronic acid), percent of the estradiol response ([3]; 0.5% topical, BID): 84%
ST (skin thickness), percent of the estradiol response ([3]; 0.5% topical, BID): 78%
ST (skin thickness), percent of the estradiol response [3, 4]: 72% and 89%
HA (hyaluronic acid), percent of the estradiol response ([3]; 1% topical, QD): 47% and 42%
ST (skin thickness), percent of the estradiol response ([3]; 1% topical, QD): 64% and 41%

melting point: 175 to 176 °C
EC50 [1]: 144 nM
ERβ % of Max E2 Response [1]: 87.4%
EC50 [2]: 22.4 nM
ERα % of Max E2 Response [2]: 92%
Structure (SMILES): CCC(O)C1(c2onc(-c3ccc(O)cc3)c2-c2ccccc2)CC1 (racemic) [Example 47, (±)-4-{5-[1-(1-Hydroxy-propyl)-cyclopropyl]-4-phenyl-isoxazol-3-yl}-phenol]
HA (hyaluronic acid), percent of the estradiol response [3, 4]: 59%
ST (skin thickness), percent of the estradiol response [3, 4]: 53%
